Structures are written as SMILES.

From EP0429372A1, “2-Azolyl nicotinate derivatives as herbicides” (RHONE-POULENC AGROCHIMIE, priority 1989, dated 1991) come the findings set out here.

Type in all cases: in vivo
The test system of one series is Triticum aestivum. Description: Example C: selectivity test in major crops, post-emergence application. The following applies: crop (Blé), 24 days, score 0-5, 0 or 1 = selective. An excerpt:
(§1) Dans des pots de 7 x 7 x 8 cm remplis de terre agricole légère, on sème un nombre de graines déterminé en fonction de l'espèce végétale et de la grosseur de la graine.
(§2) On recouvre ensuite les graines d'une couche de terre d'environ 3 mm d'épaisseur et on laisse germer la graine jusqu'à ce qu'elle donne naissance à une plantule au stade convenable. Le stade de traitement pour les graminées est le stade "deuxième feuille en formation". Le stade de traitement pour les dicotylédones, est le stade "cotylédons étalés, première feuille vraie en développement".
(§3) Les pots sont alors traités par pulvérisation de bouillie en quantité correspondant à une dose volumique d'application de 500 l/ha et contenant la matière active à la concentration désirée.
(§4) La bouillie a été préparée de la même manière qu'à l'exemple A.
(§5) Les pots traités sont ensuite placés dans des bacs destinés à recevoir l'eau d'arrosage, en subirrigation, et maintenus pendant 24 jours à température ambiante sous 70 % d'humidité relative.
(§6) Au bout de 24 jours, on mesure un pourcentage (D) de destruction du nombre de pieds dans le pot traité par rapport au nombre de plantes dans les pots non traités (témoin). On mesure, sur les plantes traitées restantes, le pourcentage de réduction de taille (RT) par rapport aux plantes témoin.
(§7) Le pourcentage de volume foliaire non détruit par le produit est donc donné par la formule : [formula]
(§8) Cette valeur A est transformée en notation de 0 à 5 selon l'échelle suivante :
(§9) Ainsi, un produit est jugé comme sélectif vis à vis de la culture lorsque la valeur A notée est de 0 ou 1.
(§10) Les résultats obtenus sont présentés dans l'exemple C pour des doses d'application comprises entre 0,5 et 4 kg de matière active par hectare selon les produits.

A further series has as its system Oryza sativa. The series is described as above. The following applies: crop (Riz), 24 days, score 0-5, 0 or 1 = selective.
Description: as §1, §2, §3, §4, §5, §6, §7, §8, §9, §10

A further series concerns Zea mays. Described as above. The following applies: crop (Maïs), 24 days, score 0-5, 0 or 1 = selective.
Description: as §1, §2, §3, §4, §5, §6, §7, §8, §9, §10

The subject of series [1] is Sinapis alba. Described as above.
Description: as §1, §2, §3, §4, §5, §6, §7, §8, §9, §10

The next series deals with Sesbania exaltata. Described as above.
Description: as §1, §2, §3, §4, §5, §6, §7, §8, §9, §10

In series [2] the test system is Solanum nigrum. The description is as above.
Description: as §1, §2, §3, §4, §5, §6, §7, §8, §9, §10

For the next series, the system named is Ipomea pupurea. The description is as above.
Description: as §1, §2, §3, §4, §5, §6, §7, §8, §9, §10

In a further series the test system is Xanthium pennsylvanicum. The series is described as above.
Description: as §1, §2, §3, §4, §5, §6, §7, §8, §9, §10

Another series relates to Lolium multiflorum. Description: Example B: post-emergence herbicidal application, pot test.
Description: as §1
(§11) On recouvre ensuite les graines d'une couche de terre d'environ 3 mm d'épaisseur et on laisse germer la graine jusqu'à ce qu'elle donne naissance à une plantule au stade convenable. Le stade de traitement pour les graminées est le stade "deuxième feuille en formation ". Le stade de traitement pour les dicotylédones, est le stade "cotylédons étalés, première feuille vraie en développement".
as §3
(§12) La bouille a été préparée de la même manière qu'à l'exemple A.
as §5, §6
(§13) Le pourcentage du volume foliaire non détruit par le produit est donc donné par la formule : [formula]
as §8
(§14) Les résultats obtenus sont présentés après le tableau A pour des doses d'application de 4000 g/ha.

A further series deals with Digitaria sanguinalis. Described as above.
Description: as §1, §11, §3, §12, §5, §6, §13, §8, §14

Series [3] deals with Sinapis alba. The description is as above.
Description: as §1, §11, §3, §12, §5, §6, §13, §8, §14

A further series relates to Ipomea purpurea. Described as above.
Description: as §1, §11, §3, §12, §5, §6, §13, §8, §14

The subject of series [4] is Solanum nigrum. The series is described as above.
Description: as §1, §11, §3, §12, §5, §6, §13, §8, §14

For a further series, the system named is Echinochloa crusgalli. The series is described as above. The following applies: 4000 g/ha, 576 h.
Description: as §1, §11, §3, §12, §5, §6, §13, §8, §14

Where [5] appears, read: weed, dose 2 kg/ha, 24 days, score 0-5.
Setting [6] is: 4 kg/ha, rated after 24 days, score 0-5 from % leaf volume not destroyed.
For ACTIVITE HERBICIDE DE POST LEVEE O R Y in this document: ranges in brackets are in %.
For ACTIVITE HERBICIDE DE POST LEVEE T R Z in this document: ranges in brackets are in %.
For ACTIVITE HERBICIDE DE POST LEVEE Z E A in this document: ranges in brackets are in %.

As for `CN(C)S(=O)(=O)n1nc(-c2ccccc2)nc1-c1ncccc1C(=O)O` [compound 1, Sel d'isopropylamine de 3 -(3 - carboxy 2 - pyridyl) 2 - N,N dimethyl sulfamoyl 5 - phényl 1,2,4 - triazole], the “ACTIVITE HERBICIDE DE POST LEVEE T R Z” value with Triticum aestivum (dose 1 kg/ha) is given as 0 (90 à 100). In addition, the “ACTIVITE HERBICIDE DE POST LEVEE O R Y” value with Oryza sativa (dose 1 kg/ha) is 0 (90 à 100). Further, the “ACTIVITE HERBICIDE DE POST LEVEE Z E A” value in the series on Zea mays (dose 1 kg/ha) is given as 0 (90 à 100). The “ACTIVITE HERBICIDE DE POST LEVEE S I N” value with Sinapis alba [1] (1000 g/ha, 576 h) is recorded as 5 (O à 10). For the same molecule, the “ACTIVITE HERBICIDE DE POST LEVEE S E S” value in the series with Sesbania exaltata (1000 g/ha, 576 h) is recorded as 5 (O à 10). For the same molecule, in the series on Solanum nigrum [2] (1000 g/ha, 576 h), the “ACTIVITE HERBICIDE DE POST LEVEE S O L” value was 5 (O à 10). Moreover, the “ACTIVITE HERBICIDE DE POST LEVEE I P O” value in the series with Ipomea pupurea (1000 g/ha, 576 h) is reported as 4 (10 à 30). Moreover, the “ACTIVITE HERBICIDE DE POST LEVEE X A N” value in the series on Xanthium pennsylvanicum (1000 g/ha, 576 h) is on record as 4 (10 à 30). Moreover, the “ACTIVITE DE POST-LEVEE LOL” value with Lolium multiflorum (4000 g/ha, 576 h) is 0 (90 à 100). In addition, the “ACTIVITE DE POST-LEVEE DIG” value in the series with Digitaria sanguinalis (4000 g/ha, 576 h) is 0 (90 à 100). Further, in the series on Sinapis alba [3] (4000 g/ha, 576 h), the “ACTIVITE DE POST-LEVEE SIN” value is 5 (O à 10). Moreover, the “ACTIVITE DE POST-LEVEE IPO” value in the series on Ipomea purpurea (4000 g/ha, 576 h) was 3 (30 à 50). For the same molecule, the “ACTIVITE DE POST-LEVEE SOL” value with Solanum nigrum [4] (4000 g/ha, 576 h) is 5 (O à 10). In addition, the “ACTIVITE DE POST-LEVEE ECH” value with Echinochloa crusgalli is listed as 0 (90 à 100).

As to `CN(C)S(=O)(=O)n1nc(-c2ccccc2)nc1-c1ncccc1C(=O)O` [compound 7, Acide 3 - (3 - carboxy 2 - pyridyl) 2 - N,N - diméthyl sulfamoyl 5 - phényl 1,2,4 -triazole], the “ACTIVITE HERBICIDE DE POST LEVEE T R Z” value in the series with Triticum aestivum (dose 2 kg/ha) is on record as 0 (90 à 100). Moreover, in the series on Oryza sativa (dose 2 kg/ha), the “ACTIVITE HERBICIDE DE POST LEVEE O R Y” value was 0 (90 à 100). Besides, in the series on Zea mays (dose 2 kg/ha), the “ACTIVITE HERBICIDE DE POST LEVEE Z E A” value is given as 0 (90 à 100). The “ACTIVITE HERBICIDE DE POST LEVEE S I N” value in the series on Sinapis alba [1] (setting [5]) was 5 (O à 10). The “ACTIVITE HERBICIDE DE POST LEVEE S E S” value in the series with Sesbania exaltata (setting [5]) is given as 5 (O à 10). Moreover, the “ACTIVITE HERBICIDE DE POST LEVEE S O L” value with Solanum nigrum [2] (setting [5]) is 4 (10 à 30). For the same molecule, in the series on Ipomea pupurea (weed, post-emergence, dose 2 kg/ha, 24 days, score 0-5), the “ACTIVITE HERBICIDE DE POST LEVEE I P O” value was 4 (10 à 30). For the same molecule, in the series on Xanthium pennsylvanicum (setting [5]), the “ACTIVITE HERBICIDE DE POST LEVEE X A N” value is 4 (10 à 30). Also, the “ACTIVITE DE POST-LEVEE LOL” value in the series with Lolium multiflorum (setting [6]) is 1 (70 à 90). Moreover, the “ACTIVITE DE POST-LEVEE DIG” value in the series with Digitaria sanguinalis (setting [6]) is 1 (70 à 90). In addition, the “ACTIVITE DE POST-LEVEE SIN” value with Sinapis alba [3] (setting [6]) is 5 (O à 10). Also, the “ACTIVITE DE POST-LEVEE IPO” value with Ipomea purpurea (setting [6]) is listed as 4 (10 à 30). Besides, the “ACTIVITE DE POST-LEVEE SOL” value in the series with Solanum nigrum [4] (setting [6]) was 5 (O à 10).

As for `CN(C)S(=O)(=O)n1nc(-c2cccc(Cl)c2)nc1-c1ncccc1C(=O)O` [compound 9], the “ACTIVITE HERBICIDE DE POST LEVEE T R Z” value in the series with Triticum aestivum (dose 0,5 kg/ha) is on record as 0 (90 à 100). The “ACTIVITE HERBICIDE DE POST LEVEE O R Y” value in the series on Oryza sativa (dose 0,5 kg/ha) was 1 (70 à 90). Also, the “ACTIVITE HERBICIDE DE POST LEVEE Z E A” value with Zea mays (dose 0,5 kg/ha) is given as 2 (50 à 70). In addition, the “ACTIVITE HERBICIDE DE POST LEVEE S I N” value with Sinapis alba [1] (500 g/ha, 576 h) is recorded as 3 (30 à 50). In the series on Sesbania exaltata (500 g/ha, 576 h), the “ACTIVITE HERBICIDE DE POST LEVEE S E S” value was 5 (O à 10). For the same molecule, in the series with Solanum nigrum [2] (500 g/ha, 576 h), the “ACTIVITE HERBICIDE DE POST LEVEE S O L” value is reported as 4 (10 à 30). Moreover, the “ACTIVITE HERBICIDE DE POST LEVEE I P O” value in the series with Ipomea pupurea (500 g/ha, 576 h) was 3 (30 à 50). Besides, the “ACTIVITE HERBICIDE DE POST LEVEE X A N” value with Xanthium pennsylvanicum (500 g/ha, 576 h) is given as 3 (30 à 50). The “ACTIVITE DE POST-LEVEE LOL” value with Lolium multiflorum (4000 g/ha, 576 h) is given as 0 (90 à 100). Also, the “ACTIVITE DE POST-LEVEE DIG” value in the series with Digitaria sanguinalis (4000 g/ha, 576 h) is given as 2 (50 à 70). Further, in the series with Sinapis alba [3] (4000 g/ha, 576 h), the “ACTIVITE DE POST-LEVEE SIN” value is reported as 4 (10 à 30). In addition, the “ACTIVITE DE POST-LEVEE IPO” value in the series on Ipomea purpurea (4000 g/ha, 576 h) is on record as 3 (30 à 50). In addition, the “ACTIVITE DE POST-LEVEE SOL” value in the series on Solanum nigrum [4] (4000 g/ha, 576 h) is listed as 3 (30 à 50). Moreover, the “ACTIVITE DE POST-LEVEE ECH” value with Echinochloa crusgalli is reported as 2 (50 à 70).
